According to US9850272B2, “Therapeutically active estratrienthiazole derivatives as inhibitors of 17.beta-hydroxy-steroid dehydrogenase, type 1” (FORENDO PHARMA LTD, priority 2013, dated 2017):

Experiments:
[1] = target: T1, Recombinant Human 17β-HSD1 (Homo sapiens, UniProt P14061); assay: Inhibition of recombinant human 17β-HSD1 (conversion of 3H-estrone to estradiol, HPLC); format: biochemical; details: inhibitor at 1 μM; 30 nM estrone, 1 mM NADPH, 30 min at RT; read-out: 17β-HDS1 Inhibition % at 1 μM
T1 construct: made in house; host or cells: Sd9 (Sf9) insect cells, baculovirus (Bac to Bac Expression System)
T1 sequence (P14061 1-328): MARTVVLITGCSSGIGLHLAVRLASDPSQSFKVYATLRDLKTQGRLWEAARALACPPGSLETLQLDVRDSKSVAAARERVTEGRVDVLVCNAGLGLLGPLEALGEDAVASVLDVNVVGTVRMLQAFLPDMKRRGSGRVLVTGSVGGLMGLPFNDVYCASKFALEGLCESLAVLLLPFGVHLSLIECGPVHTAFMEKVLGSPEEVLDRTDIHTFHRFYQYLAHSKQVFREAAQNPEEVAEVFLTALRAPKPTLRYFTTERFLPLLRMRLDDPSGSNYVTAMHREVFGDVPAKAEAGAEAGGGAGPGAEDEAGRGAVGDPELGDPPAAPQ
Description: 17β-HSD1 Production and Isolation:
Recombinant baculovirus was generated by the “Bac to Bac Expression System” (Invitrogen). Recombinant bacmid was transfected to Sd9 insect cells using “Cellfectin Reagent” (Invitrogen). 60 h later cells were harvested; the microsomal fraction was isolated as described by Puranen, T. J., Poutanen, M. H., Peltoketo, H. E., Vihko, P. T. and Vihko, R. K. (1994) Site-directed mutagenesis of the putative active site of human 17 β-hydroxysteroid dehydrogenase type 1. Biochem. J. 304: 289-293. Aliquots were stored frozen until determination of enzymatic activity.
Assay—Inhibition of Recombinant Human 17β-HSD1:
Recombinant protein (1 μg/ml) was incubated in 20 mM KH2PO4 pH 7.4 with 30 nM estrone (including 800.000 cpm/ml of ^3H-estrone) and 1 mM NADPH for 30 min at RT, in the presence of the potential inhibitor at concentrations 1 μM or 0.1 μM. Inhibitor stock solutions were prepared in DMSO. Final concentration of DMSO was adjusted to 1% in all samples. The enzyme reaction was stopped by addition of 10% trichloroacetic acid (final concentration). Samples were centrifuged in a microtiter plate at 4000 rpm for 10 min. Supernatants were applied to reverse phase HPLC on a Waters Symmetry C18 column, equipped with a Waters Sentry Guard column. Isocratic HPLC runs were performed at RT at a flow rate of 1 ml/min in acetonitrile:water 48:52 as running solvent. Radioactivity was monitored in the eluate by a Packard Flow Scintillation Analyzer. Total radioactivity for estrone and estradiol were determined in each sample and percent conversion of estrone to estradiol was calculated according to the following formula:
(§1) Percent inhibition was calculated flowingly: % inhibition=100−% conversion

[2] = target: T2, Recombinant Human 17β-HSD2 (Homo sapiens, UniProt P37059); assay: Inhibition of recombinant human 17β-HSD2 (conversion of 3H-estradiol to estrone, HPLC); format: biochemical; details: inhibitor at 1 μM; 50 nM estradiol, 1 mM NADH, 30 min at RT; read-out: 17β-HSD2 Inhibition % at 1 μM
T2 construct: made in house; host or cells: Sd9 (Sf9) insect cells, baculovirus (Bac to Bac Expression System)
T2 sequence (P37059 1-387): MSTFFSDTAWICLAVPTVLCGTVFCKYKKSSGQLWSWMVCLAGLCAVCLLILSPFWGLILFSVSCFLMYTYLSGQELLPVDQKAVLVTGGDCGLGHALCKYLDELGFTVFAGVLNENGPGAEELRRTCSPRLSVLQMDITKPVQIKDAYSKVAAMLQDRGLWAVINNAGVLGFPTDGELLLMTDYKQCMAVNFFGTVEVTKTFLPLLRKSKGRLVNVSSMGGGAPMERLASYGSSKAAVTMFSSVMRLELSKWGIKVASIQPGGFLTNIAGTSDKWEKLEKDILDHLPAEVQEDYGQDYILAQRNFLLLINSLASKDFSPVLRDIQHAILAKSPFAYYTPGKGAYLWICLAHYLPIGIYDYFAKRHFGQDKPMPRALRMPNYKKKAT
Description: 17β-HSD2 Production and Isolation:
Similarly to 17β-HSD1 the Recombinant baculovirus was generated by the “Bac to Bac Expression System” (Invitrogen). Recombinant bacmid was transfected to Sd9 insect cells using “Cellfectin Reagent” (Invitrogen). 60 h later cells were harvested and supernatant were fractionated by the following protocol: • cells were dissolved into 40 ml of A-buffer (40 mM TRIS, pH8.0, 20% glycerol, 20 μM NAD, 0.4 mM PMSF, 150 mM NaCl, 0.5% dodecyl-β-maltoside+protease inhibitor cocktail) • cells were sonicated • lysate was incubated on ice for 15 min • lysate was centrifuged 5000 rpm 15 min, +4° C. • centrifugation of the supernatant 180.000 g 30 min, +4° C. • pellet was dissolved into 8 ml of A-buffer • not resuspended material was removed by centrifugation 5000 rpm 15 min, +4° C. • the clear supernatant was divided into 100 μl aliquots and were stored frozen until determination of enzymatic activity.
The amount of 17β-HSD2 was analysed by immunoblotting and total protein concentration of each extract batch was determined.
Assay—Inhibition of Recombinant Human 17β-HSD2:
Recombinant protein (4 μg/ml) was incubated in 20 mM KH2PO4 pH 8.5 with 50 nM estradiol (including 800.000 cpm/ml of ^3H-estradiol) and 1 mM NADH for 30 min at RT, in the presence of the potential inhibitor at concentrations 1 μM or 0.1 μM. Inhibitor stock solutions were prepared in DMSO. Final concentration of DMSO was adjusted to 1% in all samples. The enzyme reaction was stopped by addition of 10% trichloroacetic acid (final concentration). Samples were centrifuged in a microtiter plate at 4000 rpm for 10 min. Supernatants were applied to reverse phase HPLC on a Waters Symmetry C18 column, equipped with a Waters Sentry Guard column. Isocratic HPLC runs were performed at RT at a flow rate of 1 ml/min in acetonitrile:water 48:52 as running solvent. Radioactivity was monitored in the eluate by a Packard Flow Scintillation Analyzer. Total radioactivity for estrone and estradiol were determined in each sample and percent conversion of estradiol to estrone was calculated according to the following formula:
as §1

[3] = Metabolic stability assay, human liver microsome and homogenate incubations; format: in vitro ADME; details: human liver homogenate or microsomes
Description: Metabolic Stability Assay The in vitro metabolic stability of the compounds of the invention was determined for exemplified compounds using human liver microsome and homogenate incubations. The incubation time points used with or without appropriate cofactors were 0 min and 60 min. Samples were collected at both time points and substrates were detected using LC/PDA/TOF-MS. In vitro metabolic stability (% remaining after 60 min in human liver homogenate or microsomes) of the compounds were calculated and the results are summarized in Table 3.

SMILES	inhibition at 1 µM [1] [%]	inhibition at 1 µM [2] [%]	In vitro metabolic stability, % remaining after 60 min [3] [%]
CO[C@H]1C[C@@H](CCC(=O)Nc2ncc(C)s2)C2C3CCc4cc(O)ccc4C3CC[C@@]21C (stereo partly drawn) [Compound 17, 3-((13S,15R,17S)-3-hydroxy-17-methoxy-13-methyl-7,8,9,11,12,13,14,15,16,17-decahydro-6H-cyclopenta[a]phenanthren-15-yl)-N-(5-methylthiazol-2-yl)propanamide]	79	4	37
CCCC[C@]1(O)C[C@@H](CCC(=O)Nc2ncc(C)s2)C2C3CCc4cc(O)ccc4C3CC[C@@]21C (stereo partly drawn) [Compound 19, 3-((13S,15R,17S)-17-butyl-3,17-dihydroxy-13-methyl-7,8,9,11,12,13,14,15,16,17-decahydro-6H-cyclopenta[a]phenanthren-15-yl)-N-(5-methylthiazol-2-yl)propanamide]	93	6	90
